The record followed here is patent US20060069132A1, “Azolecarboxamide herbicides” (priority 2004, published 2006).

Like-named read-outs stand apart in the source and are kept apart here.

One experiment relates to blackgrass. The experiment in a line: Test B postemergence herbicide test. In kind it is in vivo, Alopecurus myosuroides. The conditions noted are these: for pest or weed control at 125 g/ha / pest or weed control at 500 g/ha: Alopecurus myosuroides, post-emergence, 336 h, visual rating, read-out: Blackgrass plant response rating. An outline of the steps:
(§1)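 Each value is a visual 0–100 response rating taken against controls 13 to 15 days after treatment in the greenhouse. Plants received formulated chemical postemergence at the 1- to 4-leaf stage or, in flooded paddy, at the 2-leaf stage.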

In experiment [1] the test system is small flower umbrella sedge. The experiment in a line: Test B flooded paddy test. In kind it is in vivo, Cyperus difformis. The conditions noted are these: 1000 g ai/ha, scale 0 to 100 (0 no effect, 100 complete control); for pest or weed control at 1000 g/ha: Cyperus difformis, 336 h, visual rating, 13 to 15 days, read-out: Sedge, Umbrella plant response rating. An outline of the steps:
as §1

The subject of a further experiment is bermudagrass. Kind of experiment: Test C pre-/postemergence herbicide test. In kind it is in vivo, Cynodon dactylon. The conditions noted are these: for pest or weed control at 62 g/ha / Plant response rating, Bermudagrass / Plant response rating (0 = no effect, 100 = complete control), Bermudagrass: preemergence; for pest or weed control at 125 g/ha / Plant response rating (0 = no effect, 100 = complete control), Bermudagrass: 125 g ai/ha; for pest or weed control at 125 g/ha: scale 0 (no effect) to 100 (complete control); for pest or weed control at 500 g/ha: Preemergence, read-out: Bermudagrass plant response rating. An excerpt: (§2) Seeds of plant species selected from bermudagrass (Cynodon dactylon (L.) Pers.), Surinam grass (Urochloa decumbens (Staph) R. D. Webster, previously named Brachiaria decumbens Stapf), cocklebur (Xanthium strumarium L.), corn (Zea mays L.), large crabgrass (Digitaria sanguinalis (L.) Scop.), woolly cupgrass (Eriochloa villosa (Thunb.) Kunth), giant foxtail (Setaria faberi Herrm.), goosegrass (Eleusine indica (L.) Gaertn.), johnsongrass (Sorghum halepense (L.) Pers.), kochia (Kochia scoparia (L.) Schrad.), lambsquarters (Chenopodium album L.), morningglory (Ipomoea coccinea L.), eastern black nightshade (Solanum ptycanthum Dunal), yellow nutsedge (Cyperus esculentus L.), pigweed (Amaranthus retroflexus L.), common ragweed (Ambrosia elatior L.), soybean (Glycine max (L.) Merr.), common (oilseed) sunflower (Helianthus annuus L.) and velvetleaf (Abutilon theophrasti Medik.) were planted and treated preemergence with test chemicals formulated in a non-phytotoxic solvent mixture which included a surfactant.
(§3) At the same time, plants selected from these crop and weed species and also winter barley (Hordeum vulgare L.), blackgrass (Alopecurus myosuroides Huds.), canarygrass (Phalaris minor Retz.), chickweed (Stellaria media (L.) Vill.), downy bromegrass (Bromus tectorum L.), green foxtail (Setaria viridis (L.) Beauv.), Italian ryegrass (Lolium multiflorum Lam.), wheat (Triticum aestivum L.), wild oat (Avenafatua L.) and windgrass (Apera spica-venti (L.) Beauv.) were treated with postemergence applications of some of the test chemicals formulated in the same manner. Plants ranged in height from 2 to 18 cm (1- to 4-leaf stage) for postemergence treatments. Plant species in the flooded paddy test consisted of rice (Oryza sativa), smallflower umbrella sedge (Cyperus difformis L.), ducksalad (Heteranthera limosa (Sw.) Willd.) and barnyardgrass (Echinochloa crus-galli (L.) Beauv.) grown to the 2-leaf stage for testing. Treated plants and controls were maintained in a greenhouse for 12 to 14 days, after which time all species were compared to controls and visually evaluated. Plant response ratings, summarized in Table C, are based on a scale of 0 to 100 where 0 is no effect and 100 is complete control. A dash (-) response means no test result.

The subject of another experiment is woolly cupgrass. Kind of experiment: Test C pre-/postemergence herbicide test. The conditions noted are these: for pest or weed control at 62 g/ha / Plant response rating, Cupgrass, Woolly / Plant response rating (0 = no effect, 100 = complete control), Cupgrass, Woolly: preemergence; for pest or weed control at 125 g/ha / Plant response rating (0 = no effect, 100 = complete control), Cupgrass, Woolly: 125 g ai/ha; for pest or weed control at 125 g/ha: scale 0 (no effect) to 100 (complete control). The format is in vivo, Eriochloa villosa.
From the text: as §2, §3

A further experiment has as its system goosegrass. The experiment in a line: Test C pre-/postemergence herbicide test. The format is in vivo, Eleusine indica. The conditions noted are these: for pest or weed control at 62 g/ha / Plant response rating, Goosegrass / Plant response rating (0 = no effect, 100 = complete control), Goosegrass: preemergence; for pest or weed control at 125 g/ha / Plant response rating (0 = no effect, 100 = complete control), Goosegrass: 125 g ai/ha; for pest or weed control at 125 g/ha: scale 0 (no effect) to 100 (complete control).
From the text: as §2, §3

[2] abbreviates: postemergence, 125 g ai/ha, scale 0 (no effect) to 100 (complete control).
Setting [3] is: postemergence, 500 g ai/ha, scale 0 (no effect) to 100 (complete control).
[4] abbreviates: Cynodon dactylon, pre-emergence, 312 h, 62 g ai/ha, scale 0 to 100, 0 no effect, 100 complete control, read-out: Plant response rating, Bermudagrass.
Where [5] appears, read: Cynodon dactylon, pre-emergence, 312 h, visual, 12 to 14 days, read-out: Plant response rating, Bermudagrass.
Setting [6] is: Cynodon dactylon, pre-emergence, 312 h, 500 g ai/ha, scale 0 to 100, 0 no effect, 100 complete control.
Setting [7] is: Eriochloa villosa, pre-emergence, 312 h, 62 g ai/ha, scale 0 to 100, read-out: Plant response rating, Cupgrass, Woolly.
Setting [8] is: Eriochloa villosa, pre-emergence, 312 h, visual, 12 to 14 days, read-out: Plant response rating, Cupgrass, Woolly.
Where [9] appears, read: Preemergence, 500 g ai/ha, scale 0 to 100, 0 no effect, 100 complete control.
[10] abbreviates: Eleusine indica, pre-emergence, 312 h, 62 g ai/ha, scale 0 to 100, read-out: Plant response rating, Goosegrass.
The mark [11] stands for this setting: Eleusine indica, pre-emergence, 312 h, visual, 12 to 14 days, read-out: Plant response rating, Goosegrass.
[12] abbreviates: Postemergence, 500 g ai/ha, scale 0 (no effect) to 100 (complete control).
Setting [13] is: postemergence, 125 g ai/ha, scale 0 to 100.
[14] abbreviates: 62 g ai/ha, scale 0 to 100, 0 no effect, 100 complete control.
Setting [15] is: 500 g ai/ha, scale 0 to 100 (0 no effect, 100 complete control), visual, 12 to 14 days.

Regarding `CCn1nc(C(C)(C)C)cc1C(=O)Nc1cc(C(=O)N(C)C)ccn1` [Compound 156, 2-[[[3-(1,1-dimethylethyl)-1-ethyl-1H-pyrazol-5-yl]carbonyl]amino]-N,N-dimethyl-4-pyridinecarboxamide], the pest or weed control at 125 g/ha worked out at 30% with blackgrass (setting [2]), 93% with bermudagrass (setting [5]), 70% with woolly cupgrass (setting [8]) and 90% with goosegrass (setting [11]). Moreover, the pest or weed control at 500 g/ha came out at 60% in the experiment with blackgrass (setting [3]) and 95% with bermudagrass (setting [6]). Also, the pest or weed control at 1000 g/ha in experiment [1] was 90%. The pest or weed control at 16 g/ha in the experiment on bermudagrass (Cynodon dactylon, pre-emergence, 312 h, 16 g ai/ha, scale 0 to 100, 0 no effect, 100 complete control, last section of Table C (species set of preemergence test), read-out: Plant response rating, Bermudagrass) stood at 0%. Besides, in the experiment with bermudagrass (Cynodon dactylon, pre-emergence, 312 h, 31 g ai/ha, scale 0 to 100, 0 no effect, 100 complete control, last section of Table C (species set of preemergence test), read-out: Plant response rating, Bermudagrass), the pest or weed control at 31 g/ha is 60%. Besides, the pest or weed control at 62 g/ha with bermudagrass (setting [4]) was 88%; in the experiment with woolly cupgrass (setting [7]), 33%; in the experiment with goosegrass (setting [10]), 83%. Moreover, the pest or weed control at 250 g/ha worked out at 95% with bermudagrass (Cynodon dactylon, pre-emergence, 312 h, 250 g ai/ha, scale 0 to 100 (0 no effect, 100 complete control), visual, 12 to 14 days, read-out: Plant response rating, Bermudagrass) and 80% with woolly cupgrass (Eriochloa villosa, pre-emergence, 312 h, 250 g ai/ha, scale 0 to 100 (0 no effect, 100 complete control), visual, 12 to 14 days, read-out: Plant response rating, Cupgrass, Woolly). The “Cupgrass, Woolly plant response rating” value in the experiment on woolly cupgrass (setting [9]) is reported as 90. In addition, the “Goosegrass plant response rating” value with goosegrass (setting [9]) was 95.
For `CCNC(=S)c1cccc(NC(=O)c2nn(C(C)(C)C)nc2C)c1` [Compound 420], the “Blackgrass plant response rating” value in the experiment on blackgrass (setting [12]) turned out to be 40; with blackgrass (setting [13]), 10. In experiment [1], the “Sedge, Umbrella plant response rating” value is 70. Moreover, the “Plant response rating, Bermudagrass” value is 100 in the experiment with bermudagrass (setting [14]); 100 in the experiment with bermudagrass (250 g ai/ha, scale 0-100); 100 in the experiment with bermudagrass (setting [15]). Also, in the experiment on bermudagrass, the “Plant response rating (0 = no effect, 100 = complete control), Bermudagrass” value is 100. For the same molecule, the “Plant response rating, Cupgrass, Woolly” value is 0 in the experiment with woolly cupgrass (62 g ai/ha, scale 0 to 100); 20 in the experiment on woolly cupgrass (250 g ai/ha, scale 0-100); 65 in the experiment on woolly cupgrass (setting [15]). Further, the “Plant response rating (0 = no effect, 100 = complete control), Cupgrass, Woolly” value with woolly cupgrass was determined as 10. For the same molecule, the “Plant response rating, Goosegrass” value with goosegrass (62 g ai/ha, scale 0 to 100) is recorded as 95; with goosegrass (250 g ai/ha, scale 0-100), 100; in the experiment with goosegrass (setting [15]) it was 100. Moreover, the “Plant response rating (0 = no effect, 100 = complete control), Goosegrass” value in the experiment with goosegrass is reported as 95.
In the case of `Cc1nn(C(C)(C)C)nc1C(=O)Nc1cccc(C(=S)N(C)C)c1` [Compound 419], the “Blackgrass plant response rating” value with blackgrass (setting [12]) was found to be 30; in the experiment on blackgrass (setting [13]) it was 10. The “Sedge, Umbrella plant response rating” value in experiment [1] worked out at 80. Also, the “Plant response rating, Bermudagrass” value with bermudagrass (setting [14]) is listed as 100; in the experiment on bermudagrass (250 g ai/ha, scale 0-100), 100; in the experiment on bermudagrass (setting [15]), 100. In addition, in the experiment on bermudagrass, the “Plant response rating (0 = no effect, 100 = complete control), Bermudagrass” value is listed as 100. Also, the “Plant response rating, Cupgrass, Woolly” value in the experiment with woolly cupgrass (62 g ai/ha, scale 0 to 100) was 0; in the experiment on woolly cupgrass (250 g ai/ha, scale 0-100) it was 45; in the experiment with woolly cupgrass (setting [15]), 65. In addition, the “Plant response rating (0 = no effect, 100 = complete control), Cupgrass, Woolly” value with woolly cupgrass was found to be 15. In addition, the “Plant response rating, Goosegrass” value in the experiment on goosegrass (62 g ai/ha, scale 0 to 100) was found to be 45; in the experiment with goosegrass (250 g ai/ha, scale 0-100) it was 100; with goosegrass (setting [15]) it was 100. For the same molecule, in the experiment on goosegrass, the “Plant response rating (0 = no effect, 100 = complete control), Goosegrass” value was 95.
Take `CCNC(=O)c1cccc(NC(=O)c2nn(C(C)(C)C)cc2Br)c1` [Compound 221, 4-bromo-1-(1,1-dimethylethyl)-N-[3-[(ethylamino)carbonyl]phenyl]-1H-pyrazole-3-carboxamide]: the pest or weed control at 125 g/ha in the experiment on blackgrass (setting [2]) amounted to 0%; in the experiment on bermudagrass (setting [5]) it was 10%; in the experiment on woolly cupgrass (setting [8]) it was 0%; with goosegrass (setting [11]), 0%. The pest or weed control at 500 g/ha amounted to 0% in the experiment on blackgrass (setting [3]); 85% in the experiment on bermudagrass (setting [6]); 10% in the experiment with woolly cupgrass (Eriochloa villosa, pre-emergence, 312 h, 500 g ai/ha, scale 0 to 100 (0 no effect, 100 complete control), visual, 12 to 14 days, read-out: Plant response rating, Cupgrass, Woolly); 50% with goosegrass (Eleusine indica, pre-emergence, 312 h, 500 g ai/ha, scale 0 to 100 (0 no effect, 100 complete control), visual, 12 to 14 days, read-out: Plant response rating, Goosegrass). Moreover, the pest or weed control at 1000 g/ha in experiment [1] was found to be 80%. In addition, the pest or weed control at 62 g/ha in the experiment with bermudagrass (setting [4]), in the experiment with woolly cupgrass (setting [7]) and in the experiment with goosegrass (setting [10]) was 0% in each case. Further, the pest or weed control at 250 g/ha came out at 85% with bermudagrass (Cynodon dactylon, pre-emergence, 312 h, 250 g ai/ha, scale 0-100, read-out: Plant response rating, Bermudagrass); 0% in the experiment on woolly cupgrass (Eriochloa villosa, pre-emergence, 312 h, 250 g ai/ha, scale 0-100, read-out: Plant response rating, Cupgrass, Woolly); 0% in the experiment on goosegrass (Eleusine indica, pre-emergence, 312 h, 250 g ai/ha, scale 0-100, read-out: Plant response rating, Goosegrass).
